“Also recorded” adds a separate entry of the source.
Assays:
[1] = molecular target: T1, 5-HT1A receptor (Rattus norvegicus, UniProt P19327); experiment: Functional 5-HT1A receptor [35S]GTPγS assay (agonist mode); assay type: biochemical; conditions: [35S]GTPγS, rat hippocampus homogenate;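 also: male Sprague-Dawley rat hippocampal membranes incubated 90 min at 37 °C, bound label counted by scintillation after filtration, non-specific binding defined with 100 µM unlabeled GTPγS, one-site curve fit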
T1 construct: 15 μg/mL of hippocampus homogenate was incubated in triplicate with 0.8 nM; from tissue; host or cells: rat hippocampus homogenate
T1 sequence (P19327 1-422): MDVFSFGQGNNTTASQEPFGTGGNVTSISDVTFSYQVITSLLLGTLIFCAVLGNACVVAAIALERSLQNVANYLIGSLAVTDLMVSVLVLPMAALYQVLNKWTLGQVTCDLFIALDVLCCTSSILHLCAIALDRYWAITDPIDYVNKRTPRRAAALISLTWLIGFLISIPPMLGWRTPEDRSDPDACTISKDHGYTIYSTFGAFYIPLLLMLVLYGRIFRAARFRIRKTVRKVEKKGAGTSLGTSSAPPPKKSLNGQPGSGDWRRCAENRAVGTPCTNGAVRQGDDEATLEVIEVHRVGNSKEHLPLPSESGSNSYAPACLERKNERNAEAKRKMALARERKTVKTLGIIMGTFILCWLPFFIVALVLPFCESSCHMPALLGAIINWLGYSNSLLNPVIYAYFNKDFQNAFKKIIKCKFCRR

[2] = molecular target: T2, D2 receptor (Rattus norvegicus, UniProt P61169); experiment: Functional D2 receptor [35S]GTPγS assay (antagonist mode vs dopamine; basal for agonism); assay type: biochemical; conditions: against 40 µM dopamine, rat striatal homogenate; read-out: D2 receptor antagonistic activity IC50 (95% CI);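 also: [35S]GTPγS binding counted by scintillation after 60 min at 30 °C, nonspecific binding defined with 100 µM unlabeled GTPγS, inhibition curves fitted by one-site nonlinear regression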
T2 construct: 15μg/mL of striatal homogenate was incubated in triplicate; from tissue; host or cells: rat striatum homogenate
T2 sequence (P61169 whole entry): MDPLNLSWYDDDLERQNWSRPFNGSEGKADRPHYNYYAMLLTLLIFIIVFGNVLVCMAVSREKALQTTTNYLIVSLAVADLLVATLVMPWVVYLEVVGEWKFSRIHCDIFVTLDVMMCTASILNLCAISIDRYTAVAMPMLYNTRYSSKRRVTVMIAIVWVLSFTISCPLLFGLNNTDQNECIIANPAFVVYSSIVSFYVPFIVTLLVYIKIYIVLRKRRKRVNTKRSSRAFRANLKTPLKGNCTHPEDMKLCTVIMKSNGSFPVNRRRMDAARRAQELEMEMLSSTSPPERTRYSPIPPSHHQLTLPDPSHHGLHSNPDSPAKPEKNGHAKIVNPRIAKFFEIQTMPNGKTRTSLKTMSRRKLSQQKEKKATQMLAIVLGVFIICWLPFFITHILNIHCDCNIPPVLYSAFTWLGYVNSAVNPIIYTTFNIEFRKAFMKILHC

[3] = molecular target: 5-HT2A receptor (Rattus norvegicus, UniProt P14842); experiment: 5-HT2A competition binding assay ([3H]ketanserin, frontal cortex homogenates); conditions: read-out: 5-HT2A Ki (95% CI)
Sequence of 5-HT2A receptor (P14842 whole entry): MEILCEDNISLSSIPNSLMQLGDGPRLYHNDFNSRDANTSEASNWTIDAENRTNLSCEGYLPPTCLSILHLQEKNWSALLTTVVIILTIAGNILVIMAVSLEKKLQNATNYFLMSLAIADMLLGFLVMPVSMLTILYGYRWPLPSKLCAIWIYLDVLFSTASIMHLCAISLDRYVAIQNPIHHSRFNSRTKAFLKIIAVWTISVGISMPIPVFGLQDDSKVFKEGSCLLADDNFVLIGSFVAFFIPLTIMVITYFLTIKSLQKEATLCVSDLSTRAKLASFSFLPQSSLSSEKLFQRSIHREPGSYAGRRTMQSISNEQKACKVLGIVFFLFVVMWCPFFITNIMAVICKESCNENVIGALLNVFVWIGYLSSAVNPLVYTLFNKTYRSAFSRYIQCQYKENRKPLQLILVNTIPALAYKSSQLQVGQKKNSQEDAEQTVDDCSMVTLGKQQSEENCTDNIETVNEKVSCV

[4] = tested on: mice; experiment: Chimney test (motor coordination); assay type: in vivo, mouse; conditions: 60 min before the test
Procedure: (§1) The experiments were carried out, in the Experimental Medicine Center of Medical University of Lublin, on six-week-old naive male Swiss mice, weighing 24–30 g. The mice were housed in cages, five individuals per cage in an environmentally controlled rooms (ambient temperature 22 ± 1 °C; relative humidity 50–60%; 12 h light/dark cycle, lights on at 8:00). Standard laboratory food(LSM-Agropol-Motycz, Lublin, Poland) and filtered water were available ad libitum. All the experimental procedures were carried out, according to the National Institute of Health Guidelines for the Care and Use of Laboratory Animals and to the European Community Council Directive for the Care and Use of Laboratory Animals of 22 September 2010 (2010/63/EU) and approved by the Local Ethics Committee for Animal Experimentation in Lublin. The investigated compounds (Norbo-4, Norbo-8, Norbo-10, Norbo-14, Norbo-18 and Norbo-20) in all tests were administered intraperitoneally (i.p.), dissolved in dimethyl sulfoxide (DMSO, final concentration of 0.1%) and then diluted by aqueous solution of 0.5% methylcellulose (tylose) and injected 60 min before the tests. […] All compounds were given in a volume of 10 mL/kg to mice. The control animals received an equivalent volume of the solvent at the respective time before the tests. All the experiments were conducted in the light phase between 09.00 a.m. and 14.00 p.m. The experiments were performed by an observer unaware of the treatment administered. The effects of investigated compounds on motor coordination were evaluated in the rota-rod and chimney tests. In the first test, motor impairments were measured, defined as the inability to keep balance on a rotating rod (at constant speed of 18 rpm) for 1 min. In the second test, motor impairments were assessed by mouse inability to climb up the tube backwards (3 cm in inner diameter, 25 cm long) within 60 s. Before the tests, the animals were trained once a day for 3 days. The animals able to stay on the rotating rod or to leave the chimney for 60 s were approved for experiments.

[5] = tested on: mice; experiment: Rota-rod test (motor coordination); assay type: in vivo, mouse; conditions: 30 mg/kg i.p., 60 min before the test
Procedure: as §1

[6] = tested on: mice; experiment: Spontaneous locomotor activity; assay type: in vivo, mouse
[7] = tested on: mice; experiment: Forced swim test (FST, Porsolt's test); assay type: in vivo, mouse; conditions: 60 min before the test
Procedure: as §1, with “The experiment was carried out according to the method” for “The effects”, “of Porsolt et al.. Mice were individually placed in a glass cylinder (25 cm high; 10 cm in diameter) containing water maintained at 23–25 °C, and were left there for 6 min. The total duration of immobility was recorded during the last 4 min of a 6-min test session. A mouse was regarded as immobile when it remained floating” for “of investigated compounds”, “on” for “on motor coordination were evaluated in”, “the water, making only small movements” for “the rota-rod and chimney tests. In the first test, motor impairments were measured, defined as the inability”, “keep its head above” for “keep balance on a rotating rod (at constant speed of 18 rpm) for 1 min. In”, “the water.” for “the second test, motor impairments were assessed by mouse inability to climb up the tube backwards (3 cm in inner diameter, 25 cm long) within 60 s. Before the tests, the animals were trained once a day for 3 days. The animals able to stay on the rotating rod or to leave the chimney for 60 s were approved for experiments.”

Question: `Cc1cccc(N2CCN(CCCNC(=O)C3CC4C=CC3C4)CC2)c1C` (stereo not drawn) [Norbo-4, endo-N-(3-(4-(2,3-dimethylphenyl)piperazin-1-yl)propyl)bicyclo[2.2.1]hept-5-ene-2-carboxamide] was tested. Which “5-HT1A Receptor G-Protein Stimulation Emax (%) ± SEM” value [1] did it give?
Answer: The value was 181 ± 2.4 %.

Question: And the EC50 ([1]; read-out: 5-HT1A Receptor G-Protein Stimulation EC50 (95% CI))?
Answer: Its EC50 is 181 nM.

Question: And the IC50 [2]?
Answer: Its IC50 is 33.1 µM.

Question: And the Ki [3]?
Answer: Its Ki is 33.3 nM.

Question: And the time in chimney ([4]; 15 mg/kg i.p.)?
Answer: The time in chimney was “significant increase of time in chimney”.

Question: And the time in chimney ([4]; 30 mg/kg i.p.)?
Answer: Its time in chimney is “significant increase of time in chimney; also recorded: disturbed the behavior of mice”.

Question: What about the time on rota-rod [5] of the same compound?
Answer: Its time on rota-rod is “decreased also time on rota-rod; also recorded: impaired motor coordination”.

Question: And the spontaneous locomotor activity ([6]; 15 mg/kg i.p., after 6 min of observation)?
Answer: Its spontaneous locomotor activity is “significant decrease in locomotor activity; also recorded: induced the same effect”.

Question: And the spontaneous locomotor activity ([6]; 15 mg/kg i.p., after 20 min of observation)?
Answer: The spontaneous locomotor activity was “significant decrease in locomotor activity; also recorded: induced the same effect”.

Question: What about the spontaneous locomotor activity ([6]; 30 mg/kg i.p., after 6 min of observation) of the same compound?
Answer: The spontaneous locomotor activity was “significant decrease in locomotor activity”.

Question: What about the spontaneous locomotor activity ([6]; 30 mg/kg i.p., after 20 min of observation) of the same compound?
Answer: Its spontaneous locomotor activity is “significant decrease in locomotor activity”.

Question: And the “immobility time in FST” value ([7]; 3.75 mg/kg i.p.)?
Answer: The value was “significant reduction in immobility time; also recorded: significant reduction of immobility time”.

Question: What about the “immobility time in FST” value ([7]; 15 mg/kg i.p.) of the same compound?
Answer: The value was “significant reduction in immobility time; also recorded: significant reduction of immobility time”.

Question: And the “immobility time in FST” value ([7]; 30 mg/kg i.p.)?
Answer: Its value is “significant reduction in immobility time”.

— PMC9572521, “Synthesis, Docking Studies and Pharmacological Evaluation of Serotoninergic Ligands Containing a 5-Norbornene-2-Carboxamide Nucleus” (Molecules, 2022)
